Source: patent US12448358B2, “Inhibitors of protein arginine deiminase 1 and methods of preparation and use thereof” (University of Massachusetts, priority 2019, dated 2025)
Like-named read-outs stand apart in the source and are kept apart here.

Columns and labels:
Format in all cases: biochemical
[1] = target: T1, PAD3 (Homo sapiens, UniProt Q9ULW8); assay: Inactivation kinetics of PAD3 (COLDER citrulline assay); conditions: for Fold PAD selectivity: bracketed value under kinact/KI; for kinact/KI: marks: * nonlinear fit of kobs versus [I], ‡ linear fit, † single kobs
T1 construct: made in house
T1 sequence (Q9ULW8 1-664): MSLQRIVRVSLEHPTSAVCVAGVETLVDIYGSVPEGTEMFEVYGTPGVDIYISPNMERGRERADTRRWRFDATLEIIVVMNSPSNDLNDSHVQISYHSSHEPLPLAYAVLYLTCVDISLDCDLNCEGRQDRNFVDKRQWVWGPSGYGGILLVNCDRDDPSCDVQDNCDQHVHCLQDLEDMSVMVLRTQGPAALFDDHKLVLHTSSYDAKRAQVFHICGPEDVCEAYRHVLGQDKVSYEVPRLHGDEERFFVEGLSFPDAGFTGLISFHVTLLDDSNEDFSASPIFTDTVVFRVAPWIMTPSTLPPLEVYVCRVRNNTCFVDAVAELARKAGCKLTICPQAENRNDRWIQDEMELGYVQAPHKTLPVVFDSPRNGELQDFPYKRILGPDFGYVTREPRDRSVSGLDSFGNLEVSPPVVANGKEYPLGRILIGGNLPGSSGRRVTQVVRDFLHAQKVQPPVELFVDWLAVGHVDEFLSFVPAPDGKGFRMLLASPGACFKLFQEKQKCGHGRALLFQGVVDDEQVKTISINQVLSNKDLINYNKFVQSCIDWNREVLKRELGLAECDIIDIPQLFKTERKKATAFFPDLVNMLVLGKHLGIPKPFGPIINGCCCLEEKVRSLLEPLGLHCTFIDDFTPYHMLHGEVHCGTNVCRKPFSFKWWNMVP
Procedure: (§1) Inactivation kinetics. […] After 15 min, reactions were quenched with liquid nitrogen and the production of citrulline was quantified using the COLDER assay. (Kearney, et al. Biochemistry 2005, 44, 10570-10582; Knipp, et al. Anal. Biochem. 2000, 286, 257-264.) The time-dependence of PAD inhibition was fit to the following equation 1, […] (1), using Grafit, version 5.0.11, where v is velocity, ν0 is initial velocity, k (or kobs is the pseudo-first-order rate constant of inactivation, and t is time. Upon reaching saturation, the concentration dependence of kobs was fit to equation 2, kobs=kinact[I]/(KI+[I]), (2), using Grafit, version 5.0.11, where kinact is the maximal rate of inactivation, KI is the concentration of inhibitor that affords half-maximal inactivation, and [I] is the concentration of inhibitor. When kobs with [I] varied linearly, kinact/KI was determined from the slope of the line. All the experiments were performed at least in duplicate.

[2] = target: T2, PAD2 (Homo sapiens, UniProt Q9Y2J8); assay: Inactivation kinetics of PAD2 (COLDER citrulline assay); conditions: for Fold PAD selectivity: bracketed value under kinact/KI; for kinact/KI: marks: * nonlinear fit of kobs versus [I], ‡ linear fit, † single kobs
T2 construct: made in house
T2 sequence (Q9Y2J8 whole entry): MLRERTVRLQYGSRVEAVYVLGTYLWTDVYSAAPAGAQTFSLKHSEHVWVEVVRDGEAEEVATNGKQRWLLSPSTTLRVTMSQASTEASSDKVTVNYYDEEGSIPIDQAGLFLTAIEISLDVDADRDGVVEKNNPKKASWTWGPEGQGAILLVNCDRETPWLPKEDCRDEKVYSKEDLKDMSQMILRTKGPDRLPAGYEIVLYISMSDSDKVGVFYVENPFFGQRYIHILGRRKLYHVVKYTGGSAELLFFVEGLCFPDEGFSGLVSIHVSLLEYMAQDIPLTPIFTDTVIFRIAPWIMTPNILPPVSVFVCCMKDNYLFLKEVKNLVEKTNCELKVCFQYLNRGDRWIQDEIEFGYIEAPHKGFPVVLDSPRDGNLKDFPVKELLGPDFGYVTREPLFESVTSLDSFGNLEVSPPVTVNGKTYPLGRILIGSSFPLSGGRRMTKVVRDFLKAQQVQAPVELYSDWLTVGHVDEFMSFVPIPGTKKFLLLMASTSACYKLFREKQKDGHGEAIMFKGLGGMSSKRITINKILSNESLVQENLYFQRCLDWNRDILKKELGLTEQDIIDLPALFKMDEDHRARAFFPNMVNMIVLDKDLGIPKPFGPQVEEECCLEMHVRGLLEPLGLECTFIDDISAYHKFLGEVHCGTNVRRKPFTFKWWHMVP
Procedure: as §1

[3] = target: T3, PAD1 (Homo sapiens, UniProt Q9ULC6); assay: Inactivation kinetics of PAD1 (COLDER citrulline assay); conditions: for Ki / kinact/KI / kinact: PAD1; for Ki: concentration of inhibitor that affords half-maximal inactivation; for kinact/KI: marks: * nonlinear fit of kobs versus [I], ‡ linear fit, † single kobs; for Fold PAD selectivity: PAD1 over the other PADs, bracketed value under kinact/KI
T3 construct: made in house
T3 sequence (Q9ULC6 1-663): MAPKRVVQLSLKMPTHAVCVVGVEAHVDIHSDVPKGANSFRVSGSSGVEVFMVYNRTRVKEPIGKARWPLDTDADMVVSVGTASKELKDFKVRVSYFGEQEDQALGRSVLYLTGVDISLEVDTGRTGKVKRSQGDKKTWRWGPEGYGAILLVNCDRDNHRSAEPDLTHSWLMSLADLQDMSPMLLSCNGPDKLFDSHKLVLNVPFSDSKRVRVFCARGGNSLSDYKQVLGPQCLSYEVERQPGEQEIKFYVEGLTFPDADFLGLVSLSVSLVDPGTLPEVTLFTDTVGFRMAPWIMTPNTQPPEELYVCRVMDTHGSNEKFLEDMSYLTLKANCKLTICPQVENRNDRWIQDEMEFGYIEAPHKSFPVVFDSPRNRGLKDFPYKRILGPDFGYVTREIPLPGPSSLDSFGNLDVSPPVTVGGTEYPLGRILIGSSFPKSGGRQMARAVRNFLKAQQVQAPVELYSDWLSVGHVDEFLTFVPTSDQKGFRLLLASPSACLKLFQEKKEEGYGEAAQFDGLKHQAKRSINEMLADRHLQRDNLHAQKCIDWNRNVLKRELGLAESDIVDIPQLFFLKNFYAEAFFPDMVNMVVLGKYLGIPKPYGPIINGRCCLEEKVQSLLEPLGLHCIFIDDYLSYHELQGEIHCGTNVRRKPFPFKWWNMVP
Procedure: as §1

[4] = target: T4, PAD4 (Homo sapiens, UniProt Q9UM07); assay: Inactivation kinetics of PAD4 (COLDER citrulline assay); conditions: for Fold PAD selectivity: bracketed value under kinact/KI; for kinact/KI: marks: * nonlinear fit of kobs versus [I], ‡ linear fit, † single kobs
T4 construct: made in house
T4 sequence (Q9UM07 whole entry): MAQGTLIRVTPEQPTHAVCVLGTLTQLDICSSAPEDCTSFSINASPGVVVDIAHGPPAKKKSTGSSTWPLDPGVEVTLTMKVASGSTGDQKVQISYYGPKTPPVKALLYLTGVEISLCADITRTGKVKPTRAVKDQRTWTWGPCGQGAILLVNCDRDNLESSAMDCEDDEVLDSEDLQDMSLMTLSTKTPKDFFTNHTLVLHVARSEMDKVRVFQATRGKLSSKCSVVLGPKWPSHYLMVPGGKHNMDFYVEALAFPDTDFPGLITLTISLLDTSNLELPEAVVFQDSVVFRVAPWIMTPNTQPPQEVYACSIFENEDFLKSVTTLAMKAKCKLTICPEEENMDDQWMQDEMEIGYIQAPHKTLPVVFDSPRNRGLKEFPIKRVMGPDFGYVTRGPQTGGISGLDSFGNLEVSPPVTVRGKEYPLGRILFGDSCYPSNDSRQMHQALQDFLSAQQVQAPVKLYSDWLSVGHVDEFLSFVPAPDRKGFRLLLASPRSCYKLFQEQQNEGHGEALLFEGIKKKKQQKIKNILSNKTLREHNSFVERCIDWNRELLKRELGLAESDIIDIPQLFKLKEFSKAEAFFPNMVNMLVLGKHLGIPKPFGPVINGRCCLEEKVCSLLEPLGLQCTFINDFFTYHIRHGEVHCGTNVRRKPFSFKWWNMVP
Procedure: as §1

[5] = read-out: kinact/KI (converted)

| Fold PAD selectivity [1] | kinact/KI [1, 5] [M⁻¹ s⁻¹] | Fold PAD selectivity [2] | kinact/KI [2, 5] [M⁻¹ s⁻¹] | Ki [3] [µM] | kinact/KI [3, 5] [M⁻¹ s⁻¹] | kinact ([3]; read-out: kinact (converted)) [s⁻¹] | Fold PAD selectivity [3] [fold] | Fold PAD selectivity [4] | kinact/KI [4, 5] [M⁻¹ s⁻¹] | kinact/KI [1] | kinact/KI [2] | kinact [3] [s⁻¹] | kinact/KI [3] | kinact/KI [4] | SMILES |
| --- | --- | --- | --- | --- | --- | --- | --- | --- | --- | --- | --- | --- | --- | --- | --- |
| [1] fold | 3.33 | [1] fold | 2.33 | 12.5 | 173 | 0.00217 | 74 | [2] fold | 4.5 | – | – | – | – | – | N=C(CF)NCCC[C@H](NC(=O)c1cc(I)cc(I)c1O)c1nc2ccccc2[nH]1 [Compound 1] |
| [2] fold | 11.7 | [1] fold | 5 | 30.2 | 221 | 0.00667 | 44 | [1] fold | 5 | – | – | – | – | – | N=C(CF)NCCC[C@H](NC(=O)c1cc(I)c(F)c(I)c1O)c1nc2ccccc2[nH]1 [Compound 19] |
| [2] fold | – | [1] fold | – | 69.2 | – | – | – | [2] fold | – | 310 ± 80^† M^−1min^−1 | 130 ± 30^† M^−1min^−1 | 0.00517 | 4480 ± 200* M^−1min^−1 | 220 ± 30^† M^−1min^−1 | C#Cc1c(I)cc(C(=O)N[C@@H](CCCNC(=N)CF)c2nc3ccccc3[nH]2)c(O)c1I [Compound 21] |
